# Measured values reported in patent US6468981B1, “Compositions and methods for targeting pharmaceutically active materials to cells containing androgen receptors” (Emory University, priority 1994, dated 2002).
# Legend:
# [1] = target: androgen receptor of LNCaP prostate tumor cells (Homo sapiens, UniProt P10275, T878A); conditions: cited from earlier work
# LNCaP cells = assay: Expression of pCMV-beta (lacZ) DNA in LNCaP cells, X-gal blue staining, number of blue cells per culture plate; assay type: cell-based, human; conditions: DHT-poly-L-lysine alone, no DNA; 48 hours incubation
# Procedure: DHT poly-L-lysine as described in Example 1 was dialyzed against tris-EDTA buffer pH=7 (“HMW-D”) or purified by gel filtration column chromatography (“HMW-2=fraction #2 of the column, HMW-9=fraction 9 of the column). Protein concentrations of reaction products and column fractions were determined by the coomassie blue method. DHT-poly-L-lysine at amounts from 0.05 micrograms to 12.5 micrograms were mixed with pCMV-beta DNA expression construct containing the lacZ gene driven by the CMV immediate early promoter/enhancer in a pVC19 backbone, in amounts from 3 to 50 micrograms in 100 microliters of water at room temperature for one hour with vortex mixing every 15 minutes.
# The reaction products of Example 2 were added to 1-3 ml of tissue culture media supplemented with 10% fetal bovine serum and filtered through 0.2 micron filter and added to subconfluent cultures of LNCaP cells growing on glass slides. Cells were incubated at 37 degrees C. 5% CO2 for 48 hours. Next, adherent cells were washed with phosphate buffered saline (PBS) and fixed with 2% paraformaldelyde in 0.1 M NaPO4 buffer pH=7.4 for 45 min. to one hour. Fixative was aspirated and cells rinsed with PBS and X-gal stain was applied. […] Each culture plate was scored for the number of cells which turned blue.
# androgen receptor of LNCaP prostate tumor cells, sequence (P10275 whole entry T878A): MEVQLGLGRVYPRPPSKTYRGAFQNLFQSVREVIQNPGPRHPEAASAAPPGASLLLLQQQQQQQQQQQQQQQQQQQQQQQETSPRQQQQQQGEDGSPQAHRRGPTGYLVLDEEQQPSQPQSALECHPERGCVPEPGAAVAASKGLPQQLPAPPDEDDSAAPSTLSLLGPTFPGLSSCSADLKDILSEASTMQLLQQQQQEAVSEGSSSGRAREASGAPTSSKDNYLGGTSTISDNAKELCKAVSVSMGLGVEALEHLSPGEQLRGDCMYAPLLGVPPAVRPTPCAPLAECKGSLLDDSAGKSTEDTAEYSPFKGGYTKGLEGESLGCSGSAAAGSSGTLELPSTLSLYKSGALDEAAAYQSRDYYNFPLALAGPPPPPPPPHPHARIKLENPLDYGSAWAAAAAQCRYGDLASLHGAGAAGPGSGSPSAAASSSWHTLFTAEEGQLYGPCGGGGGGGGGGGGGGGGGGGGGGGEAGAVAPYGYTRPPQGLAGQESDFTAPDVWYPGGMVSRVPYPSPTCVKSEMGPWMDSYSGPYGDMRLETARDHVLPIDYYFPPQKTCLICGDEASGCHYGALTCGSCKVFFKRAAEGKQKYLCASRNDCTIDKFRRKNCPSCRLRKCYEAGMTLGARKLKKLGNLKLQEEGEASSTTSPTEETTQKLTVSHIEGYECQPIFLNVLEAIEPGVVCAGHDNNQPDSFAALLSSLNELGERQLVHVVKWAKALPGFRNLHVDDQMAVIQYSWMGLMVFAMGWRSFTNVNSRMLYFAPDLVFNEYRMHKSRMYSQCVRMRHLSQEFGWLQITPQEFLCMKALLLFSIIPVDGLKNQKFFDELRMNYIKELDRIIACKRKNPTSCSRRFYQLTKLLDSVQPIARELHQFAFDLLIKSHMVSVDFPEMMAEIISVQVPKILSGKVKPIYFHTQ
Compound,Relative binding affinities for the androgen receptor [1],positive (blue-stained) cells (LNCaP cells)
"C[C@]1(O)CC[C@H]2[C@@H]3CCC4=CC(=O)CCC4=C3C=C[C@@]21C [R1881, 17β-hydroxy-17α-methyl-estra-4,9,11-trien-3-one]",100,–
DHT-poly-L-lysine HBr,–,no positive cells
